Results as given in PubChem BioAssay (NCI).
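Grown in 96-well plates, cells were treated for 48 hours with each compound at five concentrations. Insufficient inhibition: endpoint recorded as highest concentration tested. GI50 is the concentration that inhibits growth by half. TGI marks complete inhibition of growth.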

How the values were obtained:
Assay in all cases: DTP human tumour cell line panel, 48 h
HOP-62 NSCLC = tested on: HOP-62 NSCLC
SF-539 CNS = tested on: SF-539 CNS
KM12 colon = tested on: KM12 colon
A549 NSCLC = tested on: A549 NSCLC
OVCAR-5 ovarian = tested on: OVCAR-5 ovarian
UACC-257 melanoma = tested on: UACC-257 melanoma
NCI-H23 lung = tested on: NCI-H23 lung
HCC-2998 colon = tested on: HCC-2998 colon
SK-MEL-5 melanoma = tested on: SK-MEL-5 melanoma
SK-OV-3 ovarian = tested on: SK-OV-3 ovarian

Structure (SMILES)	GI50 (HOP-62 NSCLC)	TGI (HOP-62 NSCLC)	GI50 (SF-539 CNS)	TGI (SF-539 CNS)	GI50 (KM12 colon)	TGI (KM12 colon)	GI50 (A549 NSCLC)	TGI (A549 NSCLC)	GI50 (OVCAR-5 ovarian)	TGI (OVCAR-5 ovarian)	GI50 (UACC-257 melanoma)	TGI (UACC-257 melanoma)	GI50 (NCI-H23 lung)	TGI (NCI-H23 lung)	GI50 (HCC-2998 colon)	TGI (HCC-2998 colon)	GI50 (SK-MEL-5 melanoma)	TGI (SK-MEL-5 melanoma)	GI50 (SK-OV-3 ovarian)	TGI (SK-OV-3 ovarian)
COc1cc(Nc2nc(N[C@H]3CCCC[C@@H]3N)nc3cc[nH]c(=O)c23)cc(OC)c1	3.21 µM	20.8 µM	0.454 µM	2.64 µM	0.422 µM	3.11 µM	2.57 µM	16.1 µM	1.11 µM	14.6 µM	1.55 µM	3.33 µM	1.48 µM	15.8 µM	1.7 µM	11.5 µM	1.22 µM	6.06 µM	0.388 µM	17.5 µM
Clc1nc(Cl)c2ncn(Cc3ccc(COc4cccc(OCc5ccc(Cn6cnc7c(Cl)nc(Cl)nc76)cc5)c4)cc3)c2n1	63.4 µM	> 100 µM	> 100 µM	> 100 µM	58.2 µM	> 100 µM	> 100 µM	> 100 µM	49.8 µM	> 100 µM	24.9 µM	> 100 µM	71.4 µM	> 100 µM	17.9 µM	35.8 µM	14.3 µM	95.5 µM	> 100 µM	> 100 µM
COc1cc([C@@H]2c3cc4c(cc3[C@@H](NC(=O)c3ccccc3)C3COC(=O)[C@@H]32)OCO4)cc(OC)c1O (stereo not given in full)	–	13 µM	–	24.8 µM	–	28.3 µM	–	16.6 µM	–	> 100 µM	–	48.1 µM	–	10.7 µM	–	35.4 µM	–	14.1 µM	–	> 100 µM
CCCCN(Cc1ccc(F)cc1)c1ccc(CO)c(Cl)c1	11.1 µM	23.4 µM	17.7 µM	32.6 µM	17.5 µM	33 µM	7.38 µM	21.6 µM	0.531 µM	2.9 µM	0.862 µM	3.75 µM	11.8 µM	26.3 µM	12.4 µM	26.7 µM	14.3 µM	27.5 µM	15 µM	28.2 µM
CC(=O)O[C@@H]1CC2C(C)(C)CCCC2(C)C2=C1C(=O)C(C(C)C)=CC2=O (stereo not given in full)	1.77 µM	4.13 µM	1.17 µM	4.05 µM	1.14 µM	2.68 µM	1.43 µM	5.83 µM	2.26 µM	5.32 µM	1.55 µM	4.29 µM	1.87 µM	7.86 µM	0.405 µM	1.62 µM	0.581 µM	1.84 µM	3.26 µM	8.5 µM
Oc1ccc(CCCCCCc2ccc(O)cc2)cc1	10.3 µM	23.4 µM	2.46 µM	13.7 µM	6.54 µM	19.8 µM	6.62 µM	23 µM	16.9 µM	31.4 µM	13.9 µM	28.4 µM	7.5 µM	21.5 µM	11 µM	23.2 µM	5.27 µM	17.1 µM	11.8 µM	34.1 µM
